Experimental findings from PubChem BioAssay (NCI) are described below.

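96-well plates; 48 h exposure; 5 concentrations. Endpoints by linear interpolation between flanking doses. Not reached: highest tested concentration assigned. The concentration for 50% growth inhibition is given as GI50. The concentration for full growth arrest is given as TGI.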

Among the test systems are EKVX NSCLC; HCT-116 colon; OVCAR-8 ovarian; SW-620 colon; MALME-3M melanoma; MOLT-4 leukemia; SNB-19 CNS; SF-539 CNS; ACHN renal; A498 renal.
Holding throughout (test): NCI tumour cell line growth inhibition, 48 h

With `O=C(O)CCC/C=C\C[C@H]1C=CC(=O)/C1=C/C[C@@H](O)CCc1cccc(C(F)(F)F)c1`, the GI50 in the test with EKVX NSCLC was 3.73 µM; in the test with HCT-116 colon, 1270 nM; in the test with OVCAR-8 ovarian it was 2.86 µM; in the test on SW-620 colon it was 3.1 µM; in the test on MALME-3M melanoma it was 4.75 µM; in the test with MOLT-4 leukemia it was 2.21 µM. Moreover, the GI50 with SNB-19 CNS was 2.01 µM; in the test with SF-539 CNS it was 2460 nM; with ACHN renal, 1.65 µM; in the test on A498 renal, 2130 nM. Besides, the TGI in the test on EKVX NSCLC amounted to 14.3 µM; with HCT-116 colon, 3.17 µM; with OVCAR-8 ovarian, 11.6 µM; in the test with SW-620 colon, 10.1 µM; in the test on MALME-3M melanoma, 19.3 µM; in the test with MOLT-4 leukemia, 7.34 µM. For the same compound, the TGI in the test on SNB-19 CNS came to 4.8 µM; with SF-539 CNS, 6.57 µM; in the test with ACHN renal it was 3.22 µM; with A498 renal, 4.06 µM.

As for `O=C(/C=N/O)Nc1cc(Cl)c(Cl)cc1Cl`, the TGI with EKVX NSCLC was 96.9 µM; in the test with HCT-116 colon, 90.1 µM; in the test on OVCAR-8 ovarian, over 100 µM; in the test on SW-620 colon, over 100 µM; with MALME-3M melanoma, over 100 µM; in the test with MOLT-4 leukemia, 47.9 µM. Also, the TGI is over 100 µM with SNB-19 CNS, over 100 µM in the test on SF-539 CNS, over 100 µM with ACHN renal and 55.5 µM with A498 renal.

For the compound `O=C(O)c1cc2ccccc2oc1=O`, the TGI with EKVX NSCLC, in the test with HCT-116 colon, in the test on OVCAR-8 ovarian, in the test on SW-620 colon, in the test on MALME-3M melanoma and in the test with MOLT-4 leukemia was over 100 µM each time. The TGI with SNB-19 CNS, in the test with SF-539 CNS, in the test on ACHN renal and with A498 renal was over 100 µM in each case.

As for `CS(=O)(=O)CCNCc1ccc(-c2ccc3ncnc(Nc4ccc(OCc5cccc(F)c5)c(C(F)(F)F)c4)c3c2)o1`, the GI50 with EKVX NSCLC was 3.12 µM; in the test with HCT-116 colon, 3940 nM; in the test with OVCAR-8 ovarian, 4.76 µM; in the test on SW-620 colon it was 4.15 µM; with MALME-3M melanoma, 2.74 µM; with MOLT-4 leukemia it was 3.81 µM. Besides, the GI50 in the test with SNB-19 CNS is 4.81 µM; in the test on SF-539 CNS, 4590 nM; with ACHN renal, 4.14 µM; with A498 renal it was 3540 nM. Also, the TGI in the test with EKVX NSCLC was found to be 9.94 µM; in the test with HCT-116 colon it was 8.16 µM; with OVCAR-8 ovarian, 11.2 µM; in the test with SW-620 colon, 7.93 µM; with MALME-3M melanoma, 4.11 µM; with MOLT-4 leukemia, 11.1 µM. In addition, the TGI in the test with SNB-19 CNS was 11.4 µM; with SF-539 CNS it was 12.3 µM; in the test with ACHN renal, 8.67 µM; in the test on A498 renal it was 9.04 µM.

`O=S(=O)(SCc1ccccc1)C(c1ccccc1)c1ccccc1`: the TGI is over 100 µM in the test with EKVX NSCLC; over 100 µM in the test on HCT-116 colon; 43.1 µM in the test with OVCAR-8 ovarian; 26.9 µM in the test with SW-620 colon; over 100 µM in the test with MALME-3M melanoma; 43.7 µM in the test with MOLT-4 leukemia. In addition, the TGI is over 100 µM with SNB-19 CNS, 43.1 µM in the test on SF-539 CNS, over 100 µM in the test on ACHN renal and over 100 µM with A498 renal.

On to `O=[N+]([O-])/C=C/c1cc2ccccc2[nH]1`, for which the TGI was found to be 78 µM in the test with EKVX NSCLC; 15.7 µM in the test with HCT-116 colon; 48.8 µM with OVCAR-8 ovarian; 34.5 µM in the test with SW-620 colon; 59.8 µM in the test with MALME-3M melanoma; 44.2 µM in the test with MOLT-4 leukemia. Moreover, the TGI came out at 34.7 µM with SNB-19 CNS, 25.5 µM with SF-539 CNS, 31.1 µM in the test with ACHN renal and 34.4 µM with A498 renal.

Consider `O=C(Nc1cccc(Cc2cccc(NC(=O)c3ccccc3)c2)c1)c1ccccc1`, for which the TGI in the test on EKVX NSCLC is over 100 µM; in the test on HCT-116 colon, over 100 µM; with OVCAR-8 ovarian, over 100 µM; with SW-620 colon, over 100 µM; with MALME-3M melanoma, 99.7 µM; in the test with MOLT-4 leukemia it was over 100 µM. Moreover, the TGI is 94.6 µM in the test on SNB-19 CNS, 39.6 µM in the test on SF-539 CNS, over 100 µM with ACHN renal and over 100 µM in the test with A498 renal.

In the case of `CC(C)CC(=O)Nc1n[nH]c2c1CN(C(=O)C1CCN(C)CC1)C2(C)C`, the GI50 was 1.14 µM in the test on EKVX NSCLC; 362 nM with HCT-116 colon; 1.3 µM with OVCAR-8 ovarian; 0.895 µM in the test with SW-620 colon; 6.95 µM in the test on MALME-3M melanoma; 0.917 µM in the test on MOLT-4 leukemia. Also, the GI50 with SNB-19 CNS is 1.05 µM; in the test with SF-539 CNS, 1780 nM; with ACHN renal, over 10 µM; in the test on A498 renal it was 2340 nM. For the same compound, the TGI in the test with EKVX NSCLC, in the test with HCT-116 colon, with OVCAR-8 ovarian, with SW-620 colon, in the test with MALME-3M melanoma and in the test with MOLT-4 leukemia was over 10 µM in each case. The TGI with SNB-19 CNS is over 10 µM; in the test with SF-539 CNS it was 8.99 µM; in the test on ACHN renal, over 10 µM; in the test with A498 renal, over 10 µM.

With `OC(COc1ccc(F)cc1)Cn1cnc2c(Cl)ncnc21` (stereo not given), the GI50 in the test on EKVX NSCLC was over 100 µM; in the test on HCT-116 colon, over 100000 nM; with OVCAR-8 ovarian, 78.6 µM; in the test on SW-620 colon it was 72.9 µM; in the test on MALME-3M melanoma, 33.6 µM; with MOLT-4 leukemia, 32.5 µM. Also, the GI50 was over 100 µM in the test on SNB-19 CNS, over 100000 nM in the test with SF-539 CNS, 62.4 µM in the test with ACHN renal and over 100000 nM in the test on A498 renal. Besides, the TGI with EKVX NSCLC, in the test with HCT-116 colon, in the test on OVCAR-8 ovarian, in the test on SW-620 colon, in the test with MALME-3M melanoma and in the test with MOLT-4 leukemia was over 100 µM throughout. In addition, the TGI with SNB-19 CNS, in the test with SF-539 CNS, with ACHN renal and in the test on A498 renal was over 100 µM throughout.

For the compound `COc1ccc(Cc2cc3c(cc2OCC(=O)O)OCO3)cc1`, the TGI in the test on EKVX NSCLC, in the test on HCT-116 colon, in the test on OVCAR-8 ovarian, in the test with SW-620 colon, in the test on MALME-3M melanoma and with MOLT-4 leukemia was over 100 µM each time. Also, the TGI with SNB-19 CNS, in the test with SF-539 CNS, with ACHN renal and in the test with A498 renal was over 100 µM throughout.

On to `CN(/N=C/c1cccc2cccnc12)c1ccc([N+](=O)[O-])cc1`, for which the TGI in the test with EKVX NSCLC, in the test with HCT-116 colon, with OVCAR-8 ovarian, with SW-620 colon, with MALME-3M melanoma and in the test with MOLT-4 leukemia was over 100 µM in each case. The TGI in the test with SNB-19 CNS, with SF-539 CNS, in the test with ACHN renal and in the test with A498 renal was over 100 µM in each case.

Regarding `Cc1[nH]c2ccccc2c1-c1cc(-c2cc(-c3c(C)[nH]c4ccccc34)nc(N)n2)nc(N)n1`, the TGI in the test with EKVX NSCLC, with HCT-116 colon, in the test on OVCAR-8 ovarian, in the test on SW-620 colon, in the test on MALME-3M melanoma and with MOLT-4 leukemia was over 100 µM each time. The TGI in the test with SNB-19 CNS, in the test with SF-539 CNS, in the test with ACHN renal and in the test on A498 renal was over 100 µM each time.

For `CS(=O)(=O)Nc1cccc(-c2cc(-c3ccccc3Cl)c(C#N)c(N)n2)c1`, the GI50 in the test with EKVX NSCLC was 2.38 µM; in the test with HCT-116 colon it was 448 nM; with OVCAR-8 ovarian it was 1.05 µM; in the test on SW-620 colon, 0.425 µM; in the test on MALME-3M melanoma, 3.23 µM; with MOLT-4 leukemia, 0.894 µM. Also, the GI50 was 0.859 µM in the test on SNB-19 CNS, 361 nM in the test on SF-539 CNS, 0.679 µM with ACHN renal and 669 nM in the test on A498 renal. The TGI was 21.4 µM in the test with EKVX NSCLC; 11.8 µM in the test on HCT-116 colon; 19.9 µM in the test with OVCAR-8 ovarian; 16.7 µM with SW-620 colon; 25 µM in the test with MALME-3M melanoma; over 51.5 µM with MOLT-4 leukemia. In addition, the TGI with SNB-19 CNS worked out at 19.6 µM; with SF-539 CNS, 2.72 µM; in the test on ACHN renal, 17.6 µM; with A498 renal, 14.4 µM.

For the compound `C[C@@H]1Cc2c([nH]c3ccccc23)[C@@H](c2c(F)cc(NC3CN(CCCF)C3)cc2F)N1CC(F)(F)CO`, the GI50 is 5.41 µM with EKVX NSCLC; 1940 nM with HCT-116 colon; 11.7 µM in the test with OVCAR-8 ovarian; 3.28 µM in the test on SW-620 colon; 1.77 µM in the test on MALME-3M melanoma; 3.91 µM in the test on MOLT-4 leukemia. Also, the GI50 with SNB-19 CNS was 10.3 µM; with SF-539 CNS it was 4360 nM; in the test with ACHN renal, 4.8 µM; in the test with A498 renal, 1640 nM. The TGI is 19.3 µM in the test with EKVX NSCLC; 3.83 µM with HCT-116 colon; 33 µM in the test with OVCAR-8 ovarian; 13 µM in the test with SW-620 colon; 3.72 µM in the test with MALME-3M melanoma; 20.6 µM with MOLT-4 leukemia. For the same compound, the TGI with SNB-19 CNS was found to be 23.6 µM; in the test with SF-539 CNS it was 15.7 µM; with ACHN renal it was 17.1 µM; in the test with A498 renal, 8.82 µM.

For the compound `O=C(Nc1ccccc1O)c1ccc(CNc2ccnc(C(F)(F)F)c2)cc1`, the GI50 in the test on EKVX NSCLC is 4.19 µM; in the test with HCT-116 colon, 3960 nM; in the test on OVCAR-8 ovarian, 5.15 µM; in the test with SW-620 colon, 5.75 µM; in the test on MALME-3M melanoma, 1.03 µM; in the test with MOLT-4 leukemia it was 2.38 µM. Besides, the GI50 was 10.4 µM in the test on SNB-19 CNS, 1890 nM in the test with SF-539 CNS, 2.59 µM with ACHN renal and 2840 nM with A498 renal. The TGI was over 100 µM with EKVX NSCLC; 34.9 µM with HCT-116 colon; over 100 µM with OVCAR-8 ovarian; 23 µM in the test on SW-620 colon; 11.6 µM in the test on MALME-3M melanoma; 28.5 µM in the test with MOLT-4 leukemia. Moreover, the TGI is 33.9 µM with SNB-19 CNS, 23.1 µM with SF-539 CNS, over 100 µM in the test with ACHN renal and 12.2 µM with A498 renal.

Regarding `CCn1cc(-c2ccnc3[nH]ccc23)c(-c2cccc(NC(=O)Nc3ccc(OCc4ccccc4)cc3)c2)n1`, the GI50 in the test on EKVX NSCLC was 21.8 µM; in the test with HCT-116 colon it was 12100 nM; in the test on OVCAR-8 ovarian it was 15.7 µM; with SW-620 colon, 20.2 µM; in the test on MALME-3M melanoma, over 22.6 µM; in the test with MOLT-4 leukemia, 6.85 µM. Also, the GI50 with SNB-19 CNS was over 23.9 µM; with SF-539 CNS, 12900 nM; in the test on ACHN renal, 15.2 µM; in the test with A498 renal, 7640 nM. In addition, the TGI in the test on EKVX NSCLC, in the test with HCT-116 colon, in the test on OVCAR-8 ovarian, with SW-620 colon, with MALME-3M melanoma and in the test with MOLT-4 leukemia was over 25 µM each time. Moreover, the TGI in the test on SNB-19 CNS, in the test on SF-539 CNS, in the test with ACHN renal and in the test on A498 renal was over 25 µM each time.
